Measured values published in PMC6153434, “Bystander Effects of Hypoxia-Activated Prodrugs: Agent-Based Modeling Using Three Dimensional Cell Cultures” (Frontiers in Pharmacology, 2018).

Legend:
[1] = ref Hicks et al., 2010; Wang et al., 2014; Gu et al., 2017; cited from earlier work
[2] = pH 7.4
POR-R cells = experiment: LC-MS/MS assay for PR104A metabolites in anoxic cultures; assay type: in vitro ADME; details: 100 μM PR104A, 3 h, anoxia
Experimental: POR-R cells (10^6 cells/0.5 mL) in 24-well plates were exposed to 100 μM PR104A under anoxia for 3 h. Plates were centrifuged (216 × g, 4°C, 8 min) extracellular medium was removed and proteins precipitated with an equal volume of ice-cold methanol. Cold methanol (100 μL) was then added to each well to extract intracellular PR104A and metabolites. Samples were stored at -80°C, then thawed, centrifuged (13,000 × g, 5 min, 4°C), diluted with two volumes of ammonium formate buffer (4.5 mM, pH 4.5) and analyzed with an Agilent LC-MS/MS (model 6460) using an electrospray ionization/atmospheric pressure chemical ionization multimode source and photodiode array absorbance detector as described previously ([Patel et al., 2007]).

HCT116 and HCT116/POR#6 = details: published value; PR104H+M model; ref Foehrenbacher et al., 2013; cited from earlier work
[3] = test system: POR-R activators and PORko-G targets (HCT116); experiment: SN30000 'no bystander effect' agent-based model parameters; details: ABM parameter
[4] = test system: anoxic MCLs of POR-R activators and PORko-G targets; details: 100 μM in donor; differing proportions of POR-R activators
[5] = test system: high-POR 'activator' HCT116 cell lines (POR-R, POR-G); assay type: cell-based
HCT116 cells = details: cited from earlier work
[6] = test system: POR-null 'target' HCT116 cells in spheroids; assay type: cell-based
[7] = published value, ref Hicks et al., 2010
[8] = published value, ref Mao et al., 2018

Row | SMILES | Measured logD7.4 [2] | also measured
1 | [O-][n+]1nc(CCCN2CCOCC2)nc2cc3c(cc21)CCC3 [1-oxide] |  | cytotoxicity of downstream metabolites of SN30000 [1]: non-cytotoxic
2 | O=C(NCCCO)c1cc(N(CCBr)CCBr)c([N+](=O)[O-])cc1[N+](=O)[O-] [I Br Br (CH2)3OH] | 1.81 | 
3 | O=C(NCCO)c1cc(N(CCBr)CCBr)c([N+](=O)[O-])cc1[N+](=O)[O-] [I Br Br CH2CH2OH] | 1.69 | 
4 | O=C(NCC(O)CO)c1cc(N(CCBr)CCBr)c([N+](=O)[O-])cc1[N+](=O)[O-] (centres unmarked) [I Br Br CH2CHOHCH2OH] | 1.25 | 
5 | NC(=O)c1cc(N(CCBr)CCBr)c([N+](=O)[O-])cc1[N+](=O)[O-] [I Br Br H] | 1.97 | 
6 | CS(=O)(=O)OCCN(CCBr)c1cc(C(=O)NCCO)c([N+](=O)[O-])cc1[N+](=O)[O-] [I Br OSO2CH3 CH2CH2OH] | 0.461 | 
7 | CS(=O)(=O)OCCN(CCBr)c1cc(C(=O)NCC(O)CO)c([N+](=O)[O-])cc1[N+](=O)[O-] (centres unmarked) [I Br OSO2CH3 CH2CHOHCH2OH] | -0.0453 | 
8 | CS(=O)(=O)OCCN(CCBr)c1cc(C(N)=O)c([N+](=O)[O-])cc1[N+](=O)[O-] [I Br OSO2CH3 H] | 0.493 | 
9 | NC(=O)c1cc(N(CCCl)CCBr)c([N+](=O)[O-])cc1[N+](=O)[O-] [I Cl Br H] | 1.61 | 
10 | O=C(NCCCO)c1cc(N(CCCl)CCCl)c([N+](=O)[O-])cc1[N+](=O)[O-] [I Cl Cl (CH2)3OH] | 1.49 | 
11 | O=C(NCCN1CCOCC1)c1cc(N(CCCl)CCCl)c([N+](=O)[O-])cc1[N+](=O)[O-] [I Cl Cl CH2CH2-Nmorp] | 1.6 | 
12 | O=C(NCCO)c1cc(N(CCCl)CCCl)c([N+](=O)[O-])cc1[N+](=O)[O-] [I Cl Cl CH2CH2OH] | 1.315 | 
13 | O=C(NCC(O)CO)c1cc(N(CCCl)CCCl)c([N+](=O)[O-])cc1[N+](=O)[O-] (centres unmarked) [I Cl Cl CH2CHOHCH2OH] | 0.93 | 
14 | NC(=O)c1cc(N(CCCl)CCCl)c([N+](=O)[O-])cc1[N+](=O)[O-] [I Cl Cl H] | 1.515 | 
15 | O=C(NO)c1cc(N(CCCl)CCCl)c([N+](=O)[O-])cc1[N+](=O)[O-] [I Cl Cl OH] | 1.22 | 
16 | CS(=O)(=O)OCCN(CCCl)c1cc(C(N)=O)c([N+](=O)[O-])cc1[N+](=O)[O-] [I Cl OSO2CH3 H] | 0.425 | 
17 | O=C(NCC(O)CO)c1cc(N(CCI)CCI)c([N+](=O)[O-])cc1[N+](=O)[O-] (centres unmarked) [I Iodo Iodo CH2CHOHCH2OH] | 1.79 | 
18 | NC(=O)c1cc(N(CCI)CCI)c([N+](=O)[O-])cc1[N+](=O)[O-] [I Iodo Iodo H] | 2.408 | 
19 | CS(=O)(=O)OCCN(CCI)c1cc(C(N)=O)c([N+](=O)[O-])cc1[N+](=O)[O-] [I Iodo OSO2CH3 H] | 0.743 | 
20 | CS(=O)(=O)OCCN(CCOS(C)(=O)=O)c1cc(C(N)=O)c([N+](=O)[O-])cc1[N+](=O)[O-] [I OSO2CH3 OSO2CH3 H] | -0.701 | 
21 | NC(=O)c1cc(N(CCOS(N)(=O)=O)CCOS(N)(=O)=O)c([N+](=O)[O-])cc1[N+](=O)[O-] [I OSO2NH2 OSO2NH2 H] | -0.95 | 

Row | SMILES | Measured logD7.4 [2] | also measured
22 | CS(=O)(=O)c1cc([N+](=O)[O-])c(C(N)=O)cc1N(CCBr)CCBr [II Br Br H] | 1.18 | 
23 | NC(=O)c1cc(N(CCO)CCO)c([N+](=O)[O-])cc1N [III OH OH H] | -0.445 | 
24 | O=C(NCCO)c1cc([N+](=O)[O-])cc([N+](=O)[O-])c1N(CCBr)CCBr [IV Br Br CH2CH2OH] | 2.33 | 
25 | O=C(NCC(O)CO)c1cc([N+](=O)[O-])cc([N+](=O)[O-])c1N(CCBr)CCBr (centres unmarked) [IV Br Br CH2CHOHCH2OH] | 1.83 | 
26 | NC(=O)c1cc([N+](=O)[O-])cc([N+](=O)[O-])c1N(CCBr)CCBr [IV Br Br H] | 2.63 | 
27 | CS(=O)(=O)OCCN(CCBr)c1c(C(=O)NCCO)cc([N+](=O)[O-])cc1[N+](=O)[O-] [IV Br OSO2CH3 CH2CH2OH] | 1.01 | 
28 | CS(=O)(=O)OCCN(CCBr)c1c(C(=O)NCC(O)CO)cc([N+](=O)[O-])cc1[N+](=O)[O-] (centres unmarked) [IV Br OSO2CH3 CH2CHOHCH2OH] | 0.589 | 
29 | CS(=O)(=O)OCCN(CCBr)c1c(C(N)=O)cc([N+](=O)[O-])cc1[N+](=O)[O-] [IV Br OSO2CH3 H] | 1.23 | 
30 | O=C(NCCCO)c1cc([N+](=O)[O-])cc([N+](=O)[O-])c1N(CCCl)CCCl [IV Cl Cl (CH2)3OH] | 2 | 
31 | O=C(NCCO)c1cc([N+](=O)[O-])cc([N+](=O)[O-])c1N(CCCl)CCCl [IV Cl Cl CH2CH2OH] | 1.92 | 
32 | CS(=O)(=O)OCCN(CCCl)c1c(C(N)=O)cc([N+](=O)[O-])cc1[N+](=O)[O-] [IV Cl OSO2CH3 H] | 1.02 | 
33 | NC(=O)c1cc([N+](=O)[O-])cc([N+](=O)[O-])c1N(CCI)CCI [IV Iodo Iodo H] | 3.08 | 
34 | Nc1cc(C(=O)NCCO)c(N(CCCl)CCCl)c([N+](=O)[O-])c1 [Metabolite B] |  | extracellular concentration relative to PR104H (POR-R cells; P = 0.02): fivefold higher
35 | CS(=O)(=O)OCCN(CCBr)c1c(C(=O)NCCO)cc(NO)cc1[N+](=O)[O-] [PR104H] |  | Kc, intrinsic cytotoxic potency (HCT116 and HCT116/POR#6): 92 M⁻¹ s⁻¹; intracellular metabolite profile (POR-R cells): major intracellular metabolite
36 | [O-][n+]1nc(CCCN2CCOCC2)[n+]([O-])c2cc3c(cc21)CCC3 [SN30000] |  | Half-life, non-enzymatic loss in culture medium ([3]; 37 °C): 1000 days; F2, proportion of O2-dependent metabolism of the drug [3]: 1; Hill parameter n [3]: 1.7; KO2, O2 concentration for half-maximum prodrug activation [3]: 1.14; Kc, intrinsic cytotoxic potency of the prodrug [3]: 1800 M⁻¹ s⁻¹; Kin, rate constant for transfer from the extracellular to the intracellular compartment [3]: 10 min⁻¹; Kout, rate constant for transfer from the intracellular to the extracellular compartment [3]: 10 min⁻¹; Activator Kmet,0, rate constant for the maximum rate of metabolism in activator cells under anoxia ([3]; POR-R activators, adjusted to optimize monolayer fits): 14 min⁻¹; Target Kmet,0, rate constant for the maximum rate of metabolism in target cells under anoxia ([3]; PORko-G targets, adjusted to optimize monolayer fits): 1.3 min⁻¹; net diffusion through anoxic MCLs [4]: lowered by increasing proportions of activator cells; sensitivity of activator cell lines (clonogenic survival) [5]: marked increases in the sensitivity; Half-life, non-enzymatic loss in culture medium (HCT116 cells; 37 °C, published value, ref Mao et al., 2018): 1000 days; Hill parameter n (HCT116 cells; oxygen dependence of metabolism, published value, ref Mao et al., 2018): 1.7; Kmet,0, rate constant for the maximum rate of metabolism under anoxia (HCT116 cells; parental HCT116 cells (listed as Target Kmet,0 published value), ref Mao et al., 2018): 1.88 min⁻¹; F2, proportion of O2-dependent metabolism of the drug (HCT116 cells; [7]): 1; KO2, O2 concentration for half-maximum prodrug activation (HCT116 cells; [7]): 1.14; Kin, rate constant for transfer from the extracellular to the intracellular compartment (HCT116 cells; [8]): 10 min⁻¹; Kout, rate constant for transfer from the intracellular to the extracellular compartment (HCT116 cells; [8]): 10 min⁻¹; bystander effect [6]: trivially small; killing of target cells as proportion of activators increases [6]: increasing proportions of POR-R activators reduced killing of PORko-G targets
37 | NC(=O)c1cc(NO)cc([N+](=O)[O-])c1N(CCCl)CCCl [V Cl Cl H] | 2.19 | 
38 | NC(=O)c1cc(NO)cc([N+](=O)[O-])c1N(CCO)CCO [V OH OH H] | -1.36 | 
39 | O=C(NCC(O)CO)c1c([N+](=O)[O-])ccc(N(CCBr)CCBr)c1[N+](=O)[O-] (centres unmarked) [VI Br Br CH2CHOHCH2OH] | 1.04 | 
40 | CS(=O)(=O)OCCN(CCBr)c1ccc([N+](=O)[O-])c(C(=O)NCC(O)CO)c1[N+](=O)[O-] (centres unmarked) [VI Br OSO2CH3 CH2CHOHCH2OH] | -0.373 | 
41 | NC(=O)c1c([N+](=O)[O-])ccc(N(CCCl)CCCl)c1[N+](=O)[O-] [VI Cl Cl H] | 1.41 | 
42 | c1c2c(cc3nc(CCCN4CCOCC4)nnc13)CCC2 [nor-oxide] |  | cytotoxicity of downstream metabolites of SN30000 [1]: non-cytotoxic
